Laboratory results taken from ChEMBL document CHEMBL1201862, “PubChem BioAssay data set” (2004).
Counter-ions that a name gives are not always drawn.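 How tested: cells in 96-well plates exposed to compound for 48 hours at five concentrations. GI50 = concentration required for 50% inhibition of growth.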 Active and inactive are the calls of the source. Rule as the data show it: active = GI50 up to about 1.1 µM and inactive = higher.

Columns and labels:
Test in all cases: NCI-60 cell line screen, 48 h
NCI/ADR-RES = tested on: NCI/ADR-RES
KM12 = tested on: KM12
EKVX = tested on: EKVX
OVCAR-5 = tested on: OVCAR-5
UACC-62 = tested on: UACC-62
PC-3 = tested on: PC-3
RXF 393 = tested on: RXF 393
CCRF-CEM = tested on: CCRF-CEM
SK-MEL-5 = tested on: SK-MEL-5
HCC 2998 = tested on: HCC 2998
HCT-116 = tested on: HCT-116
M14 = tested on: M14
A549 = tested on: A549
HL-60 = tested on: HL-60
UACC-257 = tested on: UACC-257
SN12C = tested on: SN12C
A498 = tested on: A498
OVCAR-3 = tested on: OVCAR-3
SNB-75 = tested on: SNB-75
RPMI-8226 = tested on: RPMI-8226

Row | SMILES | GI50 (NCI/ADR-RES) | GI50 (KM12) | GI50 (EKVX) | GI50 (OVCAR-5) | GI50 (UACC-62) | GI50 (PC-3) | GI50 (RXF 393) | GI50 (CCRF-CEM) | GI50 (SK-MEL-5) | GI50 (HCC 2998) | GI50 (HCT-116) | GI50 (M14) | GI50 (A549) | GI50 (HL-60) | GI50 (UACC-257) | GI50 (SN12C) | GI50 (A498) | GI50 (OVCAR-3) | GI50 (SNB-75) | GI50 (RPMI-8226)
1 | c1ccc2c3c(c(N4CCOCC4)nc2c1)CCCC3 | 29.9 µM (inactive) | 38.2 µM (inactive) | 12.5 µM (inactive) | 15.1 µM (inactive) | 55.7 µM (inactive) | 36.6 µM (inactive) | 19.8 µM (inactive) | 31.9 µM (inactive) | 20.2 µM (inactive) | 32.4 µM (inactive) | 40.6 µM (inactive) | 50.7 µM (inactive) | 43.1 µM (inactive) | 14.2 µM (inactive) | 40.8 µM (inactive) | 34.2 µM (inactive) | 24 µM (inactive) | 36.6 µM (inactive) | 15.4 µM (inactive) | 
2 | CN(C)/C=N/c1ccc2c3c(cccc13)-c1ccccc1-2 | 14.9 µM (inactive) |  | 10.5 µM (inactive) | 11.1 µM (inactive) | 18.6 µM (inactive) | 12.8 µM (inactive) | 7.83 µM (inactive) | 2.23 µM (inactive) | 14.9 µM (inactive) |  | 15.4 µM (inactive) | 10.2 µM (inactive) | 11.5 µM (inactive) | 5.58 µM (inactive) | 17.3 µM (inactive) | 12.6 µM (inactive) | 10.1 µM (inactive) | 14.9 µM (inactive) | 13 µM (inactive) | 10.4 µM (inactive)
3 | CN1CCN(CCCN)CC1 | > 100 µM (inactive) | > 100 µM (inactive) | > 100 µM (inactive) | > 100 µM (inactive) | > 100 µM (inactive) | > 100 µM (inactive) | > 100 µM (inactive) | > 100 µM (inactive) | > 100 µM (inactive) |  | > 100 µM (inactive) | > 100 µM (inactive) | > 100 µM (inactive) | > 100 µM (inactive) | > 100 µM (inactive) | > 100 µM (inactive) | > 100 µM (inactive) | > 100 µM (inactive) | > 100 µM (inactive) | > 100 µM (inactive)
4 | CC(C)CCC/C(CBr)=C(\Cl)CCl | 3.27 µM (inactive) | 2.15 µM (inactive) | 16.6 µM (inactive) | 15.1 µM (inactive) |  | 4.76 µM (inactive) | 1.57 µM (inactive) | 0.123 µM (active) | 1.95 µM (inactive) | 8.59 µM (inactive) | 2.69 µM (inactive) | 1.93 µM (inactive) | 15.7 µM (inactive) | 0.103 µM (active) | 2.13 µM (inactive) | 2.82 µM (inactive) | 20.7 µM (inactive) | 2.53 µM (inactive) | 1.95 µM (inactive) | 0.948 µM (active)
5 | FC1(F)[Se]C2C3CCC(C3)C2C1(F)F (stereo not given) | > 100 µM (inactive) | > 100 µM (inactive) | > 100 µM (inactive) | > 100 µM (inactive) | > 100 µM (inactive) | > 100 µM (inactive) | > 100 µM (inactive) |  | > 100 µM (inactive) | > 100 µM (inactive) | 56.2 µM (inactive) | > 100 µM (inactive) | > 100 µM (inactive) |  |  | > 100 µM (inactive) | > 100 µM (inactive) | > 100 µM (inactive) | 97.3 µM (inactive) | > 100 µM (inactive)
6 | O=C(CCc1cccc(O)c1)NCCc1cccc(OCc2ccccc2)c1 | 18.3 µM (inactive) | 6.81 µM (inactive) | 21.5 µM (inactive) | 24.7 µM (inactive) | 14.3 µM (inactive) | 10.3 µM (inactive) | 19.7 µM (inactive) | 12.6 µM (inactive) | 16 µM (inactive) | 17.3 µM (inactive) | 16.7 µM (inactive) | 16.2 µM (inactive) | 28.1 µM (inactive) | 28.4 µM (inactive) | 16.3 µM (inactive) | 18.8 µM (inactive) | 25.4 µM (inactive) | 6.55 µM (inactive) |  | 16.2 µM (inactive)
7 | COC(=O)[C@@]1(C)CCC[C@]2(C(=O)O)C3Cc4occc4[C@H](C)[C@@H]3CCC21 (stereo not given in full) | 25.6 µM (inactive) | 49.3 µM (inactive) | 39.1 µM (inactive) | > 100 µM (inactive) | 62.5 µM (inactive) | 23.7 µM (inactive) | 51.1 µM (inactive) | 22.3 µM (inactive) | 89.1 µM (inactive) | 30.2 µM (inactive) | 35.2 µM (inactive) | 76.4 µM (inactive) | 38.5 µM (inactive) | 41.1 µM (inactive) |  | 28.9 µM (inactive) | 68.7 µM (inactive) | > 100 µM (inactive) |  | 
8 | C/C(=N\N=C(/S)SCc1ccccc1)c1ccccn1 | < 0.01 µM (active) | 0.266 µM (active) | < 0.01 µM (active) |  | 0.463 µM (active) | < 0.01 µM (active) | 1.28 µM (inactive) | < 0.01 µM (active) | 0.0635 µM (active) | 0.0476 µM (active) | < 0.01 µM (active) | < 0.0267 µM (active) | 0.17 µM (active) | < 0.01 µM (active) | < 0.01 µM (active) | < 0.0269 µM (active) | 1.41 µM (inactive) | < 0.01 µM (active) | 2.92 µM (inactive) | < 0.01 µM (active)
9 | O=C(NCCN1CCOCC1)c1cn2c(ccc3sc4ccccc4c(=O)c32)n1 | 20.6 µM (inactive) | > 100 µM (inactive) | > 100 µM (inactive) | 10.7 µM (inactive) |  | 20.1 µM (inactive) | 22 µM (inactive) | > 10 µM (inactive) | 9.77 µM (inactive) | 10.1 µM (inactive) | 5.22 µM (inactive) |  | 4.62 µM (inactive) | 8.02 µM (inactive) | 34.6 µM (inactive) | 13.1 µM (inactive) | 17.3 µM (inactive) | > 100 µM (inactive) | 24.8 µM (inactive) | 8.24 µM (inactive)
10 | Cn1c2c(c3c(=O)[nH]ncc31)Cc1ccccc1-2 | 16 µM (inactive) | 16.3 µM (inactive) | 22.7 µM (inactive) | 31.1 µM (inactive) |  | 21.5 µM (inactive) | 15.5 µM (inactive) | 9.1 µM (inactive) | 12.2 µM (inactive) |  | 3.64 µM (inactive) | 15.6 µM (inactive) | 6.56 µM (inactive) | 14.7 µM (inactive) | 10.8 µM (inactive) | 7.62 µM (inactive) | 6.62 µM (inactive) | 12.7 µM (inactive) | 16.1 µM (inactive) | 15.9 µM (inactive)
11 | CC(C)=CCNc1ncnc2c1ncn2CCC#N | > 100 µM (inactive) | > 100 µM (inactive) |  | > 100 µM (inactive) | > 100 µM (inactive) | > 100 µM (inactive) | 2.21 µM (inactive) | > 100 µM (inactive) | > 100 µM (inactive) | > 100 µM (inactive) | > 100 µM (inactive) | > 100 µM (inactive) | > 100 µM (inactive) | > 100 µM (inactive) |  | > 100 µM (inactive) | > 100 µM (inactive) | > 100 µM (inactive) | 19.8 µM (inactive) | > 100 µM (inactive)
12 | CO/N=C(\C)CCC#Cc1ccccc1C(=O)OC | > 10 µM (inactive) | > 10 µM (inactive) | > 10 µM (inactive) | > 10 µM (inactive) | > 10 µM (inactive) | > 10 µM (inactive) | > 10 µM (inactive) | > 10 µM (inactive) | > 10 µM (inactive) | > 10 µM (inactive) | > 10 µM (inactive) | > 10 µM (inactive) | > 10 µM (inactive) | > 10 µM (inactive) | > 10 µM (inactive) | > 10 µM (inactive) | > 10 µM (inactive) | > 10 µM (inactive) |  | > 10 µM (inactive)
13 | N=C(N)c1ccc(-c2ccc(-c3ccc(C(=N)N)cc3)o2)cc1 [FURAMIDINE HYDROCHLORIDE] | 31.3 µM (inactive) | 22.5 µM (inactive) | 28.4 µM (inactive) | 18.9 µM (inactive) | 25.6 µM (inactive) | 39.5 µM (inactive) | 32 µM (inactive) | 24.9 µM (inactive) | 11.9 µM (inactive) |  | 28.8 µM (inactive) | 25.1 µM (inactive) | 34.2 µM (inactive) | 77.8 µM (inactive) | 27.9 µM (inactive) | 12.6 µM (inactive) | 63.7 µM (inactive) | > 100 µM (inactive) | 42 µM (inactive) | 18.6 µM (inactive)
14 | COC(=O)C1=C(C)NC(C)=C([N+](=O)[O-])C1c1cccc(N=O)c1 (stereo not given) | 21 µM (inactive) | 13.6 µM (inactive) | 21.1 µM (inactive) | 16.9 µM (inactive) | 15.5 µM (inactive) | 17.9 µM (inactive) | 13.8 µM (inactive) | 4.83 µM (inactive) | 15.6 µM (inactive) | 18.9 µM (inactive) | 10.8 µM (inactive) | 13.1 µM (inactive) | 18.9 µM (inactive) | > 100 µM (inactive) | 12.5 µM (inactive) | 19.7 µM (inactive) | 24.4 µM (inactive) | 15 µM (inactive) |  | 4.29 µM (inactive)
15 | CC1(C)CCC[C@]2(C)[C@@H]1CC[C@@]13O[C@@H]1C1=C(CO)C(=O)OC1=C[C@@H]23 | 15.8 µM (inactive) | 11.9 µM (inactive) | 13.9 µM (inactive) | 9.71 µM (inactive) | 13.5 µM (inactive) | 14.9 µM (inactive) | 19.9 µM (inactive) |  | 15.5 µM (inactive) | 18.9 µM (inactive) | 1.44 µM (inactive) | 15.8 µM (inactive) | 10.4 µM (inactive) |  | 18.2 µM (inactive) | 12.9 µM (inactive) | 27.2 µM (inactive) |  | 30.5 µM (inactive) | 21.1 µM (inactive)
